Results: patent US20060030054A1, “Fluorescent probe” (Daiichi Pure Chemicclas Co., LTD., of Tokyo, Japan, priority 2002, published 2006)

Assays:
[1] = Complex formation constant from fluorescence intensity change on addition of magnesium; assay type: binding; details: 0.2 M Tris-perchlorate buffer pH 7.5, magnesium perchlorate, DMF 0.1%, compound 3 μM
Method: (§1) Fluorescence intensity changes of the compound obtained in Example 5 and the compound obtained in Example 7 above were measured with addition of sodium, magnesium, and potassium. Measurements were conducted in 0.2 M Tris-perchlorate buffers at pH 7.5 containing various concentrations of sodium perchlorate and magnesium perchlorate using dimethylformamide (0.1%) as co-solvent when sodium and magnesium were added, and in 0.2 M Tris-hydrochloride buffers at pH 7.5 containing various concentrations of potassium chloride using dimethylformamide (0.1%) as co-solvent when potassium was added. The final concentrations of the compounds obtained in Example 5 and Example 7 were adjusted to be 3 μM. The compound obtained in Example 5 was measured at excitation wavelength of 492 nm and fluorescence wavelength of 513 nm and the compound obtained in Example 7 was measured at excitation wavelength of 504 nm and fluorescence wavelength of […].

[2] = Fluorescence intensity change against pH change under co-presence of sodium; assay type: physicochemical; details: 0.2 M Tris-phosphate buffers at various pH, 500 mM sodium perchlorate, DMF 0.1%
Method: Fluorescence intensity changes of the compound obtained in Example 7 and Sodium Green tetra(tetramethylammonium)salt (Molecular Probes Inc.) against pH change were studied under co-presence of sodium. Measurements were conducted in 0.2 M Tris-phosphate buffers at various pH containing 500 mM of sodium perchlorate using dimethylformamide (0.1%) as a co-solvent. The compound obtained in Example 7 was measured at excitation wavelength of 504 nm and fluorescence wavelength of 522 nm and Sodium Green tetra(tetramethylammonium)salt was measured at excitation wavelength of 508 nm and fluorescence wavelength of 533 nm.

[3] = Complex formation constant from fluorescence intensity change on addition of potassium; assay type: binding; details: 0.2 M Tris-hydrochloride buffer pH 7.5, potassium chloride, DMF 0.1%, compound 3 μM; read-out: Complex formation constant K^+
Method: as §1

[4] = Complex formation constant from fluorescence intensity change on addition of sodium; assay type: binding; details: 0.2 M Tris-perchlorate buffer pH 7.5, sodium perchlorate, DMF 0.1%, compound 3 μM; read-out: Complex formation constant Na^+
Method: as §1

Complex formation constant Mg^+ [1]: Unmeasurable
Susceptibility of fluorescence intensity to pH change compared with Sodium Green tetra(tetramethylammonium)salt [2]: less susceptible to a pH change
Kd [3]: 410 µM
Kd [4]: 320 µM
SMILES: Cc1cc2c(cc1-c1c3cc(Cl)c(=O)cc-3oc3cc(O)c(Cl)cc13)OCCOCCOCCOCCO2 [Example 7]
